The values below come from US20120003151A1, “METHOD FOR EARLY IMAGING OF ATHEROSCLEROSIS” (priority 2009, published 2012).

In data set [1] the target is T1, folate receptor (Mus musculus, UniProt Q05685). Briefly: Autoradiography and histology of aortas after EC20-99mTc injection. Format: in vivo, mice. On the set-up: from tissue; host or cells: atherosclerotic aortas / aorto-cardiac region of living apoE-/- mice (lesion macrophages).
Experimental: In order to image areas of accumulation of EC20-^99mTc in atherosclerotic aortas, apoE−/− mice on a normal or Western diet were injected with EC20-^99mTc, euthanized, and thoracic aortas were excised. […] For cross sections, aortic roots and arches were cut and embedded in Tissue-Tek® O.C.T.™ mounting medium and frozen in liquid nitrogen. Serial sections were cut with a Leica CM1800 cryostat and placed on polylysine coated microscope slides (Thermo Scientific). Either whole aortas or aortic arch cross sections (40 μm) were exposed to a phosphor screen for 18 hours at 4° C. The phosphor screen was read using a Typhoon phosphorimager (GE Healthcare) at a resolution of 50 microns. Aortic tissue sections (10 m thick) adjacent to those used for autoradiography were also used for histology. H&E staining was performed to visualize lesion morphology. H&E staining of the sections was performed as follows.
The slides were fixed for 10 minutes in zinc-buffered formalin. The slides were washed with distilled water. The slides were immersed in Gills-3 hematoxylin for 5 minutes. The slides were rinsed in distilled water and dipped twice in acidic ethanol. The slides were rinsed for 30 seconds with distilled water and for 3 minutes in tap water. The slides were transferred to alcoholic Eosin Y for 20 seconds. The slides were rinsed with water and dehydrated in 2 changes of 95% ethanol, 2 changes of 100% ethanol, and 2 changes of xylenes (3 minutes per change). Coverslips were mounted using Permount™ mounting medium and allowed to dry overnight. Slides were visualized with a light microscope (4× objective). In some cases, the percentage of lumen occlusion was analyzed using ImageJ software (National Institutes of Health).
Staining with the macrophage-specific monoclonal antibody (Mac-3/CD107b; eBioscience Inc.) was performed as follows. Aortic arch sections were fixed with zinc-buffered formalin for 10 min, and endogenous biotin and peroxidase activity were blocked. Sections were incubated with anti-mouse CD107b antibody (1:50 dilution) for 1 h, and after washing, incubated with goat anti-rat biotinylated antibody (KPL Protein Research Products) at a 1:500 dilution for 30 min. After washing, streptavidin-HRP (BD Pharmingen) was added for an additional 30 min. Slides were developed with diaminobenzidine substrate (BD Pharmingen) according to manufacturer's instructions. Negative control consisted of slides developed in the absence of primary antibody. An Olympus BH-2 microscope coupled with a CCD camera was used to obtain light photomicrographs. […]
Data set [2] has as its target T1, folate receptor. The protocol: (§1) EC20-^99mTc was prepared as described (Leamon et al., Bioconjug Chem, 2002, 13(6): 1200-10; incorporated herein by reference). Vials containing lyophilized EC20 were heated at 100° C. for 5 min, after which two mL of a 925 MBq/mL solution of sodium pertechnetate (Cardinal Health) was added and the vial was heated for an additional 15 min. After dilution with the desired volume of saline, mice were injected i.p. with either 400 μL of imaging agent (18.5 MBq, ˜250 nmoles/Kg of EC20) or the same volume of imaging agent supplemented with 100-fold molar excess of free folic acid (to compete for unoccupied folate receptors). Unbound EC20-^99mTc was allowed to clear from the tissues for a period of four hours prior to imaging.
To analyze the accumulation of EC20-^99mTc in mouse aortas and heart tissues, mice were euthanized and thoracic aortas excised. Radioactivities were counted for 2 min using a gamma-counter (Packard). Results are reported as % ID/g tissue.
In order to assess whether EC20-^99mTc is in fact targeting these regions of enhanced atherosclerosis, thoracic aortas and hearts were dissected, and accumulation of EC20-^99mTc in the resected tissues was quantitated by gamma counting.

The next data set concerns FR+ macrophages. The experiment in a line: EC20-99mTc imaging after macrophage depletion with clodronate liposomes. Type of data set: in vivo. The note with it: apoE-/- mice, 8 weeks Western diet, 4 mg clodronate/dose i.p. daily for 5 days. As to the method: PBS- and clodronate liposomes were synthesized as described (Buiting et al., J. Immunol. Methods, 1996, 192(1-2): 55-62; incorporated herein by reference). 86 mg egg phosphatidylcholine +8 mg cholesterol were dissolved in 1:1 chloroform:methanol. Solvent was evaporated using a rotoevaporator for 15 min, and the resulting film was rehydrated with PBS or a 0.6 M solution of clodronate (Sigma) in PBS for 2 hours. Resulting multi-lamellar vesicles were sonicated for 3 min and allowed to swell for 2 hours at 25° C. Liposomes were washed 3× with PBS by centrifugation at 100,000×g for 30 min and resuspended in 4 mL PBS. Liposomes were extruded 5× through both a 400 nm and 200 nm pore-size polycarbonate filter and stored at 4° C. until use. The resulting liposomes consisted of 7:1.3 molar ratio egg phosphatidylcholine:cholesterol, respectively. The efficiency of clodronate entrapment using this method was 7.8%.
For systemic elimination of macrophages, apoE−/− mice were fed a Western diet for a period of 8 weeks, after which 200 μL of PBS- or clodronate-liposomes (4 mg clodronate/dose) were injected i.p. daily for 5 days. After treatment, mice were injected i.p. with EC20-^99mTc and imaged, as described above.

Data set [3] deals with T1, folate receptor. Briefly: Radioimaging (gamma scintigraphy, ROI analysis) of EC20-99mTc in ApoE-/- mice. Type of data set: in vivo. On the set-up: from tissue; host or cells: atherosclerotic aortas / aorto-cardiac region of living apoE-/- mice (lesion macrophages). The protocol: as §1

T1 sequence (Q05685 21-227): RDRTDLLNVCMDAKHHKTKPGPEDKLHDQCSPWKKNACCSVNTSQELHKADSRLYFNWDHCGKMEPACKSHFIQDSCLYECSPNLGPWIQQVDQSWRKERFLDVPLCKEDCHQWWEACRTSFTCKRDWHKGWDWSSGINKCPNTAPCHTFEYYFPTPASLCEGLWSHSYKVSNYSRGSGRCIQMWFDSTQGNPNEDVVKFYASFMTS

On to `Nc1nc2ncc(CNc3ccc(C(=O)N[C@H](CCC(=O)NC[C@H](N)C(=O)N[C@@H](CC(=O)O)C(=O)N[C@@H](CS)C(=O)O)C(=O)O)cc3)nc2c(=O)[nH]1` [EC20], for which, at folate receptor [1] (ApoE-/- mice, Western Diet 0, 2, 12 or 26 weeks, H&E plaque size), the “detectability of EC20 uptake in small, early, active atherosclerotic plaques” value is given as “detectable”.
As for `Nc1nc2ncc(CNc3ccc(C(=O)N[C@H](CCC(=O)NC[C@H](N)C(=O)N[C@@H](CC(=O)O)C(=O)N[C@@H](CS)C(=O)O)C(=O)O)cc3)nc2c(=O)[nH]1` [EC20-^99mTc, metal not drawn], the “decrease of EC20-99mTc retention in the aortas by competition with excess folic acid” value at folate receptor [2] (apoE-/- mice on Western diet, compared to non-competed controls) is on record as 41%. In addition, the “accumulation in the aortas, higher on Western chow than normal diet” value on folate receptor [2] (apoE-/- mice, 25 weeks on diet, gamma counting) is listed as approximately 120%. Also, the “EC20-99mTc uptake in hearts relative to aortas” value with folate receptor [2] (mouse, in vivo) was “threefold lower”. Further, the “reduction of EC20-99mTc uptake by clodronate-liposome treatment relative to PBS-containing liposomes” value in the data set on FR+ macrophages is given as 65%. Further, the “signal intensity after pre-injection of 100-fold excess free folic acid” value at folate receptor [3] (apoE-/- mice on Western diet, 25 weeks, folic acid competition) is given as “reduced to near background levels”. The “average increase in EC20-99mTc signal intensity in the aorto-cardiac region, Western diet compared to normal rodent chow” value at folate receptor [3] (apoE-/- mice, 25 weeks on diet, i.p., imaged after 4 h clearance) was approximately 70%. Further, on folate receptor [1] (apoE-/- mice on Western diet, autoradiography), the “radioactivity in the aortic root and arch with 100-fold greater dose of free folic acid” value is “significantly reduced”. Further, at folate receptor [1] (apoE-/- mice, 25 weeks Western chow, serial sections: H&E, Mac-3, autoradiography), the “correspondence of areas of high macrophage content and lesion formation with loci of elevated 99mTc emission” value is reported as “invariably corresponded”. For the same compound, the “uptake in the aortic root and arch by autoradiography, Western diet versus normal diet” value at folate receptor [1] (apoE-/- mice, whole aortas, phosphorimager) is recorded as “significantly greater uptake”.
